Measurements as given in ChEMBL document CHEMBL1137903 (Bioorg Med Chem Lett, 2004).

Key:
[1] = Bioavailability in rat (dose 1 mg/kg p.o.); assay type: ADME, organism-based; conditions: in vivo, po
[2] = target: T1, Melatonin receptor type 1B (Homo sapiens, UniProt P49286); experiment: Inhibition of 2-[125I]iodomelatonin binding to membrane preparations of NIH3T3 cells stably expressing human Melatonin receptor type 1B; assay type: cell membranes
T1 sequence (P49286 whole entry): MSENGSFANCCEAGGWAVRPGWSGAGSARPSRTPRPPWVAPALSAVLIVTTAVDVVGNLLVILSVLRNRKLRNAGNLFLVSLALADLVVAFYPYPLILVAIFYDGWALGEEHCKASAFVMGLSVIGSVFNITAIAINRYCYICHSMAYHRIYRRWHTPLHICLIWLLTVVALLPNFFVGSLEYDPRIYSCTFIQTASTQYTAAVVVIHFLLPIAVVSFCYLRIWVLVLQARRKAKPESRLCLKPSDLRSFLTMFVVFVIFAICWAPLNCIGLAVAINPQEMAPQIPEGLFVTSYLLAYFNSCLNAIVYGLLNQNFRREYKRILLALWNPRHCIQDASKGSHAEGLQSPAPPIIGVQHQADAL

[3] = target: T2, Melatonin receptor type 1A (Homo sapiens, UniProt P48039); experiment: Inhibition of 2-[125I]iodomelatonin binding to membrane preparations of NIH3T3 cells stably expressing human Melatonin receptor type 1A; assay type: cell membranes
T2 sequence (P48039 whole entry): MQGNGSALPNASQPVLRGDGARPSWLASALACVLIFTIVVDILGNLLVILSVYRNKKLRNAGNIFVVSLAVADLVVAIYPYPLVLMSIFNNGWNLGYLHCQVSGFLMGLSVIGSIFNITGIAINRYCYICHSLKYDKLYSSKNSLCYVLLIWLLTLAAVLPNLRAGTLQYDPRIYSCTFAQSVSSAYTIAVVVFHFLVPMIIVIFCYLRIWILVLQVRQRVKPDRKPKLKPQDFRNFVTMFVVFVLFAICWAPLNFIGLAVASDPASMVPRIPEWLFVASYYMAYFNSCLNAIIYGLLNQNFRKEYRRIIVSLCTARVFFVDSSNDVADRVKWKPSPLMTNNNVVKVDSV

[4] = target: T2, Melatonin receptor type 1A; experiment: Agonist activity towards human Melatonin receptor type 1A was determined by its ability to inhibit forskolin stimulated cAMP accumulation; assay type: functional
[5] = Half-life in rats after the administration of 1 mg/kg i.v. dose; assay type: ADME, organism-based; parameters: dose 1 mg/kg, route intravenous; conditions: rat, in vivo, iv
[6] = Clearance in rats after the administration of 1 mg/kg i.v. dose; assay type: ADME, organism-based; parameters: dose 1 mg/kg, route intravenous; conditions: rat, in vivo, iv
[7] = target: T2, Melatonin receptor type 1A; experiment: Intrinsic activity towards human Melatonin receptor type 1A relative to melatonin
[8] = Volume of distribution in rats after the administration of 1 mg/kg i.v. dose; assay type: ADME, organism-based; parameters: dose 1 mg/kg, route intravenous; conditions: rat, in vivo, iv
[9] = target: T1, Melatonin receptor type 1B; experiment: Agonist activity towards human Melatonin receptor type 1B was determined by its ability to inhibit forskolin stimulated cAMP accumulation; assay type: functional

Row | Ki [2] | Ki [3] | Compound | further results
1 | 52 nM | 21 nM | CCNC(=O)NCCCc1cccc2oc(CCCCc3ccccc3)cc12 | –
2 | 83 nM | 3.7 nM | CC(C)C(=O)NCCCc1cccc2oc(CCCCc3ccccc3)cc12 | –
3 | 82 nM | 16 nM | CCCC(=O)NCCCc1cccc2oc(CCCCc3ccccc3)cc12 | –
4 | 54 nM | 23 nM | CC(C)C(=O)NC[C@@H]1CC1c1cccc2oc(CCCCc3ccccc3)cc12 (some centres undefined) | –
5 | 95 nM | 6 nM | O=C(NCCCc1cccc2oc(CCCCc3ccccc3)cc12)C1CC1 | –
6 | 127 nM | 19 nM | CC(=O)NCCCc1cccc2oc(CCCCc3ccccc3)cc12 | –
7 | 98 nM | 39 nM | CCNC(=O)N[C@H]1CCN(c2cccc3oc(CCCCc4ccccc4)cc23)C1 | –
8 | 90 nM | 33 nM | CCNC(=O)NC[C@@H]1C[C@H]1c1cccc2oc(CCCCc3ccccc3)cc12 | –
9 | 10 nM | 10 nM | CCCC(=O)NC[C@@H]1CC1c1cccc2oc(CCCCc3ccccc3)cc12 (some centres undefined) | –
10 | 60 nM | 7.5 nM | CCC(=O)NCCCc1cccc2oc(CCCCc3ccccc3)cc12 | –
11 | 2.8 nM | 2.1 nM | CCC(=O)NC[C@@H]1CC1c1cccc2oc(CCCCc3ccccc3)cc12 (some centres undefined) | –

Continued, compound first:

Row | Compound | Ki [2] | Ki [3] | further results
12 | COc1ccc2[nH]cc(CCNC(C)=O)c2c1 [MELATONIN] | – | – | bioavailability [1]: 24%
13 | CCCC(=O)N[C@H]1CCN(c2cccc3oc(CCCCc4ccccc4)cc23)C1 | 7.2 nM | 11 nM | –
14 | CC(C)C(=O)N[C@H]1CCN(c2cccc3oc(CCCCc4ccccc4)cc23)C1 | 162 nM | 105 nM | –
15 | O=C(NC[C@@H]1CC1c1cccc2oc(CCCCc3ccccc3)cc12)C1CC1 (some centres undefined) | 33 nM | 16 nM | –
16 | CC(=O)N[C@H]1CCN(c2cccc3oc(CCCCc4ccccc4)cc23)C1 | 14 nM | 22 nM | –
17 | O=C(N[C@H]1CCN(c2cccc3oc(CCCCc4ccccc4)cc23)C1)C1CC1 | 152 nM | 42 nM | –
18 | CCC(=O)N[C@H]1CCN(c2cccc3oc(CCCCc4ccccc4)cc23)C1 | 6 nM | 2.4 nM | –
19 | CC(=O)NC[C@@H]1CC1c1cccc2oc(CCCCc3ccccc3)cc12 (some centres undefined) | 10 nM | 2.6 nM | bioavailability [1]: 90%; EC50 [4]: 0.6 nM; half-life [5]: 3.8 h; clearance [6]: 27.5 mL/min/kg; Activity [7]: 0.97; Vd [8]: 0.557 L/kg; EC50 [9]: 21 nM
